Measured values reported in ChEMBL document CHEMBL1149501, “Selective COX-2 inhibitors. Part 1: synthesis and biological evaluation of phenylazobenzenesulfonamides” (Bioorg Med Chem Lett, 2006).

How the values were obtained:
[1] = biological target: T1, Prostaglandin G/H synthase 1 (Ovis aries, UniProt P05979)
T1 sequence (P05979 whole entry): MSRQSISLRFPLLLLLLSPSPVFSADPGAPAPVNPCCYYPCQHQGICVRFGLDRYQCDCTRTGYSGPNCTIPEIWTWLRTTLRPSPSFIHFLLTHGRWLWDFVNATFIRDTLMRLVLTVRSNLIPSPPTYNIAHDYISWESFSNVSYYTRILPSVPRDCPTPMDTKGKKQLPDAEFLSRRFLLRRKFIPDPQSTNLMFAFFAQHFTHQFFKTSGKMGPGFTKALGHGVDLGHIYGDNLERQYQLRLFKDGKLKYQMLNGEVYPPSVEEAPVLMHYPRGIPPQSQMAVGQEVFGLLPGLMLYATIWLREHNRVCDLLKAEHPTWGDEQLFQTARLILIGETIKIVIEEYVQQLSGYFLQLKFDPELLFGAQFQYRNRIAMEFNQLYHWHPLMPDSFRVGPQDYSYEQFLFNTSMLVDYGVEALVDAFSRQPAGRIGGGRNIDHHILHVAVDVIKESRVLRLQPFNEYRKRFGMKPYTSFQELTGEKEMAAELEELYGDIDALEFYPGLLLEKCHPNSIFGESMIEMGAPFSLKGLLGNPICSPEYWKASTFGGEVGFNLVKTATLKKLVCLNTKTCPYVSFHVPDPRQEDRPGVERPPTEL

[2] = biological target: Prostaglandin G/H synthase 1 (Homo sapiens, UniProt P23219); assay: Inhibition of COX1 assessed as TBX2 production in human whole blood; type: functional, tissue-based
Sequence of Prostaglandin G/H synthase 1 (Homo sapiens, UniProt P23219) (P23219 whole entry): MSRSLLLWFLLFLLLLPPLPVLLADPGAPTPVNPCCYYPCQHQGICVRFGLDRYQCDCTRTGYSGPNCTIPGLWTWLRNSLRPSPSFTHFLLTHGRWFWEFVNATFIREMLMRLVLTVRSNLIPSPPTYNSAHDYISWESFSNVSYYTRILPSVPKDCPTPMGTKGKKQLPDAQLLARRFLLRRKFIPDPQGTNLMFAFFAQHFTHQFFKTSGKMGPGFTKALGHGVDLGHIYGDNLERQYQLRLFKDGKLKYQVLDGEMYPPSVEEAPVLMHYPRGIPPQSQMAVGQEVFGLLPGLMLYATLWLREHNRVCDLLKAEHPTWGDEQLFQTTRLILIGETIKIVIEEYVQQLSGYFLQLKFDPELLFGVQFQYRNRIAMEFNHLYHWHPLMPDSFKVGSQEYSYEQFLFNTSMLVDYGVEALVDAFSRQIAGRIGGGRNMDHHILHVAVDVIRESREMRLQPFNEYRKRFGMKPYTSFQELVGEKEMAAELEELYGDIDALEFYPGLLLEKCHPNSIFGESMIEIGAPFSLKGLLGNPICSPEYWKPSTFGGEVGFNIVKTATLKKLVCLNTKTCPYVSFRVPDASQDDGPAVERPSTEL

IC50 [1] [µM]	IC50 [2] [µM]	SMILES
34.1	23.3	CSc1cc(N)ccc1/N=N/c1ccc(S(N)(=O)=O)cc1
	> 100	COc1cc(/N=N/c2ccc(S(N)(=O)=O)cc2)ccc1O
	33.3	NS(=O)(=O)c1ccc(/N=N/c2ccc(O)c(Cl)c2)cc1
	> 100	CN(C)c1ccc(/N=N/c2ccc(S(N)(=O)=O)cc2)cc1
	> 100	NS(=O)(=O)c1ccc(/N=N/c2ccc(O)cc2)cc1
	60	NS(=O)(=O)c1ccc(/N=N/c2ccc(O)c(O)c2)cc1

Continued, compound first:

SMILES	IC50 [1] [µM]	IC50 [2] [µM]
NS(=O)(=O)c1ccc(/N=N/c2ccc(OC(=O)Nc3ccccc3)c(OC(=O)Nc3ccccc3)c2)cc1		35.1
COc1ccc(/N=N/c2ccc(S(N)(=O)=O)cc2)cc1O		66.4
COc1ccc(/N=N/c2ccc(S(N)(=O)=O)cc2)cc1		> 100
COc1ccc(/N=N/c2ccc(S(N)(=O)=O)cc2)cc1OC	> 100	61.7
CC(C)c1ccc(NC(=O)Oc2ccc(/N=N/c3ccc(S(N)(=O)=O)cc3)cc2OC(=O)Nc2ccc(C(C)C)cc2)cc1		26.3
Oc1ccc(/C=C/c2cc(O)cc(O)c2)cc1 [RESVERATROL]	0.38	
NS(=O)(=O)c1ccc(/N=N/c2ccc(O)c(C(=O)O)c2)cc1 [SALAZOSULFAMIDE]	29.3	31.6
